Patent publication US8901119B2, “Peptide deformylase inhibitors” (GlaxoSmithKline Intellectual Property (No. 2) Limited, priority 2011, dated 2014)
≈ marks a conversion by molar mass, not a printed value. Where two headings read alike, the source gives them in different places.

Experiments:
[1] = test system: Staphylococcus aureus WCUH29; test: Antimicrobial activity assay (broth microdilution MIC); format: cell-based; details: read-out: MIC, S. aureus WCUH29
Procedure: (§1) Whole-cell antimicrobial activity was determined by broth microdilution using the Clinical and Laboratory Standards Institute (CLSI, formerly NCCLS) recommended methodology (NCCLS Document M7-A7, “Methods for Dilution Antimicrobial Susceptibility Tests for Bacteria that Grow Aerobically; Approved Standard—Seventh Edition”, 2006). Compounds were tested in serial two-fold dilutions ranging from 64 to 0.06 μg/mL against a panel of at least 11 strains. This panel consisted of the following laboratory strains: Staphylococcus aureus Oxford, Staphylococcus aureus WCUH29, Enterococcus faecalis I, Enterococcus faecalis 7 or Enterococcus faecalis X7501, Haemophilus influenzae Q1, Haemophilus influenzae NEMC1 or Haemophilus influenzae H128, Moraxella catarrhalis 1502, Streptococcus pneumoniae 1629, Streptococcus pneumoniae N1387, Streptococcus pneumoniae Ery2 and Escherichia coli 7623 or Escherichia coli 3. All compounds were also tested against Haemophilus influenzae H128 or Escherichia coli 7623 efflux minus mutants (strains in which the AcrA efflux pump had been deleted) to ascertain the extent in which the molecules were effluxed out of the bacteria. In addition, the antibacterial activity of some compounds against Streptococcus pyogenes 1307006P and Streptococcus pyogenes 1308007P was also analyzed. The minimum inhibitory concentration (MIC) was determined as the lowest concentration of compound that inhibited visible growth. A mirror reader was used to assist in determining the MIC endpoint.

[2] = test system: Enterococcus faecalis X7501; test: as above; format: cell-based; details: read-out: MIC, E. faecalis X7501
Procedure: as §1

Escherichia coli 3 = test: as above; format: cell-based; details: read-out: MIC, E. coli 3
Procedure: as §1

[3] = test system: Moraxella catarrhalis 1502; test: as above; format: cell-based
Procedure: as §1

[4] = test system: Staphylococcus aureus Oxford; test: as above; format: cell-based; details: read-out: MIC, S. aureus Oxford
Procedure: as §1

[5] = test system: Streptococcus pneumoniae Ery2; test: as above; format: cell-based; details: ERY2, read-out: MIC, S. pneumoniae ERY2
Procedure: as §1

[6] = test system: Streptococcus pyogenes 1308007P; test: as above; format: cell-based; details: read-out: MIC, S. pyogenes 1308007P
Procedure: as §1

[7] = test system: Haemophilus influenzae Q1; test: as above; format: cell-based
Procedure: as §1

[8] = test system: Streptococcus pneumoniae 1629; test: as above; format: cell-based; details: read-out: MIC, S. pneumoniae 1629
Procedure: as §1

Enterococcus faecalis I = test: as above; format: cell-based; details: read-out: MIC, E. faecalis I
Procedure: as §1

[9] = test system: Haemophilus influenzae H128; test: as above; format: cell-based; details: read-out: MIC, H. influenzae H128
Procedure: as §1

[10] = test system: Streptococcus pneumoniae N1387; test: as above; format: cell-based; details: read-out: MIC, S. pneumoniae N1387
Procedure: as §1

[11] = molecular target: T1, Staphylococcus aureus PDF (SaPDF) (Staphylococcus aureus, UniProt P68826); test: PDF IC50 Assay 2 (FDH/NAD+/Diaphorase-coupled fluorescence); format: biochemical; details: Assay 2 conditions; read-out: IC50, S. aureus PDF activity
T1 sequence (P68826 1-183): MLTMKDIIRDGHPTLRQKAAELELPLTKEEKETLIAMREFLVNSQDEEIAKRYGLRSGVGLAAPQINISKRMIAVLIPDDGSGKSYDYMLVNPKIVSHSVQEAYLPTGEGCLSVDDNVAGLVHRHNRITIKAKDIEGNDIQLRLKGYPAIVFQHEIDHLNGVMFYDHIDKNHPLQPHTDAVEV
Procedure: (§2) Enzymatic activity of PDF was measured using a formate dehydrogenase (FDH)/NAD+/Diaphorase-coupled Fluorescence detection assay. Once formate is released from methionine by PDF, it is oxidized by FDH, thereby reducing one molecule of NAD to NADH. Diaphorase then catalyzes the conversion of Resazurin to Resarufin using the NADH produced by the FDH reaction. The fluorescence intensity of Resarufin is monitored by excitation at 525 nm and emission at 598 nm. The reaction is assembled by first adding the NAD, f-MAS and Resazurin to each well of a 384 well plate containing 50 nl of test compounds. Reactions were initiated by adding PDF in reaction buffer containing FDH and Diaphorase. The final reaction composition for the Staphylococcus aureus PDF (SaPDF) assay was 50 mM potassium phosphate, 0.025% CHAPS pH 7.6, 0.25 units/mL FDH, 0.156 μm! Diaphorase; 0.025 mg/ml BSA; 1 mM NAD, 0.5% DMSO, 1 mM formyl-Met-Ala-Ser; 5 uM Resazurin, and 1 nM SaPDF, in 10 μL total volume. Serial dilutions of inhibitors were performed in DMSO. Reagents and assay format were identical for the Haemophilus influenzae PDF; in the Streptococcus pneumoniae PDF assays, assay composition was the same, except that […] enzyme was used. The endpoint of each reaction was chosen to ensure that all data were collected within the linear range of catalysis. IC50s were determined by fitting to the equation: % Inhibition=100/1+(IC50/[l])^s, where s is a slope factor, l is the inhibitor concentration and the IC50 is the concentration of compound that causes 50% inhibition.

[12] = molecular target: T2, Streptococcus pneumoniae PDF (Streptococcus pneumoniae serotype 4, UniProt Q9F2F0); test: as above; format: biochemical; details: Assay 2 conditions; read-out: IC50, S. pneumoniae PDF activity
T2 sequence (Q9F2F0 1-203): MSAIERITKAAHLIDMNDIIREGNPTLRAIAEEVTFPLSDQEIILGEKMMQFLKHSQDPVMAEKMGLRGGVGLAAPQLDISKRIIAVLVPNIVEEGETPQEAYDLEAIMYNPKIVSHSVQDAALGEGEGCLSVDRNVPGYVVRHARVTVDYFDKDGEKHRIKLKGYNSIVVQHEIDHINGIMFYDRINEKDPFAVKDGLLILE
Procedure: as §2

[13] = molecular target: T3, Haemophilus influenzae PDF (Haemophilus influenzae, UniProt P44786); test: as above; format: biochemical
Procedure: as §2

[14] = molecular target: T1, Staphylococcus aureus PDF (SaPDF); test: PDF IC50 Assay 1 (FDH-coupled, absorbance 340 nm); format: biochemical; details: Assay 1 conditions; read-out: IC50, S. aureus PDF activity
Procedure: (§3) Enzymatic activity of PDF was measured using a formate dehydrogenase (FDH)-coupled assay [Lazennec and Meinnel (1997) Anal. Biochem. 244, 180-182]. Once formate is released from methionine by PDF, it is oxidized by FDH thereby reducing one molecule of NAD to NADH and resulting in an increase in absorbance at 340 nm. Reactions were initiated by adding PDF to microtiter plates containing all other reaction components and were continuously monitored for 20 min at 25° C. The final reaction composition for the Staphylococcus aureus PDF (SaPDF) assay was 50 mM potassium phosphate, pH 7.6, 5 units/mL FDH, 7 mM NAD, 1% DMSO, 0.01% CHAPS, 1 nM SaPDF, and 3 mM formyl-Met-Ala-Ser in 40 μL total volume. Serial dilutions of inhibitors were performed in DMSO. Reagents and assay format were identical for Haemophilus influenzae PDF except that formyl-Met-Ala-Ser was 6 mM final. In the Streptococcus pneumoniae PDF assay, reaction conditions were similar but contained […] enzyme, 4 mM NAD and 4 mM formyl-Met-Ala-Ser. The varying formyl-Met-Ala-Ser concentrations reflect KM values for substrate using the different PDF isozymes. IC50s were determined by fitting to the equation: % Inhibition=100/1+(IC50/[l])^s, where s is a slope factor, l is the inhibitor concentration and the IC50 is the concentration of compound that causes 50% inhibition.

[15] = molecular target: T2, Streptococcus pneumoniae PDF; test: PDF IC50 Assay 1 (FDH-coupled, absorbance 340 nm); format: biochemical; details: Assay 1 conditions; read-out: IC50, S. pneumoniae PDF activity
Procedure: as §3

[16] = molecular target: T3, Haemophilus influenzae PDF; test: PDF IC50 Assay 1 (FDH-coupled, absorbance 340 nm); format: biochemical
Procedure: as §3

[17] = Q1, broth microdilution, read-out: MIC, H. influenzae Q1

T3 sequence (P44786 whole entry): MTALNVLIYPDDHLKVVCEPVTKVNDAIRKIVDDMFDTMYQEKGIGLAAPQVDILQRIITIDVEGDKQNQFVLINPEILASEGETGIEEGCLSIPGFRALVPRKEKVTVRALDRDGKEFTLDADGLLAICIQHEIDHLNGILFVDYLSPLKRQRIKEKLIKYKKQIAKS

Structure (SMILES) | MIC [1] | MIC [2] | MIC (Escherichia coli 3) | MIC [3] | MIC [4] | MIC [5] | MIC [6] | MIC [7, 17] | MIC [8] | MIC (Enterococcus faecalis I) | MIC [9] | MIC [10] | IC50 [11] | IC50 [12] | IC50 [13] | MIC ([7]; Q1, read-out: MIC, H. influenzae Q1) | IC50 [14] | IC50 [15] | IC50 [16]
O=CN(O)C[C@@H](CC1CCCC1)C(=O)N1NCC[C@H]1C(=O)Nc1cccc[n+]1[O-] [Example 45, (3S)-2-((2R)-3-Cyclopentyl-2-{[formyl(hydroxy)amino]methyl}propanoyl)-N-(1-oxido-2-pyridinyl)-3-pyrazolidinecarboxamide] | 0.25 µg/mL (≈ 0.617 µM) | 8 µg/mL (≈ 19.7 µM) | 32 µg/mL (≈ 78.9 µM) | ≤ 0.06 µg/mL | 1 µg/mL (≈ 2.47 µM) | 0.25 µg/mL (≈ 0.617 µM) | 4 µg/mL (≈ 9.87 µM) | 0.5 µg/mL (≈ 1.23 µM) | 0.5 µg/mL (≈ 1.23 µM) | 2 µg/mL (≈ 4.93 µM) | 1 µg/mL (≈ 2.47 µM) | 0.25 µg/mL (≈ 0.617 µM) | – | – | – | – | – | – | –
CN(C)CCOc1nccc(NC(=O)[C@@H]2CCNN2C(=O)[C@H](CC2CCCC2)CN(O)C=O)n1 [Example 81, (3S)-2-((2R)-3-Cyclopentyl-2-{[formyl(hydroxy)amino]methyl}propanoyl)-N-(2-{[2-(dimethylamino)ethyl]oxy}-4-pyrimidinyl)-3-pyrazolidinecarboxamide] | – | – | – | – | – | – | – | – | – | – | – | – | ≤ 1 µM | ≤ 1 µM | ≤ 1 µM | – | – | – | –
O=CN(O)C[C@@H](CC1CCCC1)C(=O)N1NCC[C@H]1C(=O)Nc1ncccn1 [Example 84, (3S)-2-((2R)-3-Cyclopentyl-2-{[formyl(hydroxy)amino]methyl}propanoyl)-N-2-pyrimidinyl-3-pyrazolidinecarboxamide] | 0.125 µg/mL (≈ 0.32 µM) | 16 µg/mL (≈ 41 µM) | 16 µg/mL (≈ 41 µM) | ≤ 0.06 µg/mL | 0.5 µg/mL (≈ 1.28 µM) | 1 µg/mL (≈ 2.56 µM) | 0.5 µg/mL (≈ 1.28 µM) | – | 1 µg/mL (≈ 2.56 µM) | 8 µg/mL (≈ 20.5 µM) | 0.5 µg/mL (≈ 1.28 µM) | 1 µg/mL (≈ 2.56 µM) | ≤ 1 µM | ≤ 1 µM | ≤ 1 µM | 0.125 µg/mL (≈ 0.32 µM) | – | – | –
CN(C)Cc1nccc(NC(=O)[C@@H]2CCNN2C(=O)[C@H](CC2CCCC2)CN(O)C=O)n1 [Example 91, (3S)-2-((2R)-3-Cyclopentyl-2-{[formyl(hydroxy)amino]methyl}propanoyl)-N-{2-[(dimethylamino)methyl]-4-pyrimidinyl}-3-pyrazolidinecarboxamide] | 1 µg/mL (≈ 2.23 µM) | 16 µg/mL (≈ 35.8 µM) | 4 µg/mL (≈ 8.94 µM) | ≤ 0.06 µg/mL | 4 µg/mL (≈ 8.94 µM) | 1 µg/mL (≈ 2.23 µM) | 1 µg/mL (≈ 2.23 µM) | 0.5 µg/mL (≈ 1.12 µM) | 2 µg/mL (≈ 4.47 µM) | 16 µg/mL (≈ 35.8 µM) | 0.5 µg/mL (≈ 1.12 µM) | 0.5 µg/mL (≈ 1.12 µM) | – | – | – | – | – | – | –
O=CN(O)C[C@@H](CC1CCCC1)C(=O)N1N=CC[C@H]1C(=O)Nc1ccncn1 [Example 92, (5S)-1-((2R)-3-Cyclopentyl-2-{[formyl(hydroxy)amino]methyl}propanoyl)-N-4-pyrimidinyl-4,5-dihydro-1H-pyrazole-5-carboxamide] | 0.125 µg/mL (≈ 0.322 µM) | 1 µg/mL (≈ 2.57 µM) | 16 µg/mL (≈ 41.2 µM) | ≤ 0.06 µg/mL | 0.25 µg/mL (≈ 0.644 µM) | 0.25 µg/mL (≈ 0.644 µM) | 0.5 µg/mL (≈ 1.29 µM) | 0.5 µg/mL (≈ 1.29 µM) | 0.5 µg/mL (≈ 1.29 µM) | 1 µg/mL (≈ 2.57 µM) | 0.5 µg/mL (≈ 1.29 µM) | 0.125 µg/mL (≈ 0.322 µM) | – | – | – | – | – | – | –
CCCCC[C@H](CN(O)C=O)C(=O)N1NCC[C@H]1C(=O)Nc1ccc(F)cn1 [Example 100, (3S)—N-(5-Fluoro-2-pyridinyl)-2-((2R)-2-{[formyl(hydroxy)amino]methyl}heptanoyl)-3-pyrazolidinecarboxamide] | – | – | – | – | – | – | – | – | – | – | – | – | – | – | – | – | ≤ 1 µM | ≤ 1 µM | ≤ 1 µM
CCCCC[C@H](CN(O)C=O)C(=O)N1NCC[C@H]1C(=O)Nc1ccncn1 [Example 101, (3S)-2-((2R)-2-{[Formyl(hydroxy)amino]methyl}heptanoyl)-N-4-pyrimidinyl-3-pyrazolidinecarboxamide] | – | – | – | – | – | – | – | – | – | – | – | – | ≤ 1 µM | ≤ 1 µM | ≤ 1 µM | – | – | – | –
O=CN(O)C[C@@H](CC1CCCC1)C(=O)N1NCC[C@H]1C(=O)Nc1ccc(O)cc1 [Example 123, (3S)-2-((2R)-3-Cyclopentyl-2-{[formyl(hydroxy)amino]methyl}propanoyl)-N-(4-hydroxyphenyl)-3-pyrazolidinecarboxamide] | – | – | – | – | – | – | – | – | – | – | – | – | ≤ 1 µM | ≤ 1 µM | ≤ 1 µM | – | – | – | –
